Assay results: US20090325959A1 (priority 2008, published 2009)
Where two headings read alike, the source gives them in different places.

Legend:
[1] = target: T1, p70S6K human enzyme (Homo sapiens, UniProt P23443, T412E); test: p70S6K inhibition assay (IMAP FP); assay type: biochemical;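 also: kinase reaction run at room temperature, phosphorylated substrate captured on IMAP beads and read as fluorescence polarization in mP, IC50 then converted to Ki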
T1 construct: purchased Upstate Chemicon 14-486
T1 sequence (P23443 1-421 T412E limits assumed): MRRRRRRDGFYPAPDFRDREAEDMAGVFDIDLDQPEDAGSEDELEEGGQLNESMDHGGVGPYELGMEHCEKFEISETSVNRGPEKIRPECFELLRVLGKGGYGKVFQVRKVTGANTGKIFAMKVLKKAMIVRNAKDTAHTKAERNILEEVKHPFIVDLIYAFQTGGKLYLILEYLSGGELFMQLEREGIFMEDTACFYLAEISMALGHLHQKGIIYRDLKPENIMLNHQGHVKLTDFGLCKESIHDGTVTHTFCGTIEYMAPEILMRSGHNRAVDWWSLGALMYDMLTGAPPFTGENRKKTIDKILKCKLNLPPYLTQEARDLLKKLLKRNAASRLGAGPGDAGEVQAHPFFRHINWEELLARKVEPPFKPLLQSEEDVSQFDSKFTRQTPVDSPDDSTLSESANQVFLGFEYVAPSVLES

[2] = target: T2, ROCK2 (Homo sapiens, UniProt O75116); test: Rho kinase inhibition assay (IMAP fluorescence polarization), ROCK2; assay type: biochemical;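 also: kinase reaction started with 10 µM ATP and run 60 min at room temperature, then phosphorylated substrate captured on IMAP beads for 30 min and fluorescence polarization read in mP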
T2 construct: purchased Upstate/Chemicon 14-451
T2 sequence (O75116 11-552 limits assumed): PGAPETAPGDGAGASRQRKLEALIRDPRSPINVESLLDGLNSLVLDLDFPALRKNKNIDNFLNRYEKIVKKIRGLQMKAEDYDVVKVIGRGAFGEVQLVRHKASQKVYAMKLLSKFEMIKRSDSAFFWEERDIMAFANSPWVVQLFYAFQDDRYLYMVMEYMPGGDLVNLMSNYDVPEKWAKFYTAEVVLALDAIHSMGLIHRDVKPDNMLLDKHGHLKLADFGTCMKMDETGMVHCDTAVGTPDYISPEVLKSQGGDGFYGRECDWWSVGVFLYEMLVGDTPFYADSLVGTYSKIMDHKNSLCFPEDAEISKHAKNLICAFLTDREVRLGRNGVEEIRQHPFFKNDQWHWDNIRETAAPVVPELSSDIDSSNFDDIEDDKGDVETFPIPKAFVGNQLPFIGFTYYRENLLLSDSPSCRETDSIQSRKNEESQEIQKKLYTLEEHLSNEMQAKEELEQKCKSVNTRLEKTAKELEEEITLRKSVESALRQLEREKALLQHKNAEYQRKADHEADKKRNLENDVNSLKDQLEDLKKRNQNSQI
Description: (§1) Following the pre-incubation, 10 μM ATP was added to initiate the reaction. After 60 minutes at room temperature, Molecular Devices IMAP™ binding solution was added to bind phosphorylated substrate. After 30 minutes of incubation in the presence of the IMAP™ beads, the fluorescence polarization was read and the ratio was reported as mP. IC50 values for compounds and EC50 values for ATP were calculated using the Prism software from Graphpad.

[3] = target: T3, Akt3 human enzyme (Homo sapiens, UniProt Q9Y243); test: Akt3 inhibition assay (IMAP FP); assay type: biochemical;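 also: kinase reaction run 60 min at room temperature after 30 µM ATP start, phosphorylated substrate captured on IMAP beads and read as fluorescence polarization (mP)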
T3 construct: purchased Upstate Chemicon 14-502
T3 sequence (Q9Y243 whole entry): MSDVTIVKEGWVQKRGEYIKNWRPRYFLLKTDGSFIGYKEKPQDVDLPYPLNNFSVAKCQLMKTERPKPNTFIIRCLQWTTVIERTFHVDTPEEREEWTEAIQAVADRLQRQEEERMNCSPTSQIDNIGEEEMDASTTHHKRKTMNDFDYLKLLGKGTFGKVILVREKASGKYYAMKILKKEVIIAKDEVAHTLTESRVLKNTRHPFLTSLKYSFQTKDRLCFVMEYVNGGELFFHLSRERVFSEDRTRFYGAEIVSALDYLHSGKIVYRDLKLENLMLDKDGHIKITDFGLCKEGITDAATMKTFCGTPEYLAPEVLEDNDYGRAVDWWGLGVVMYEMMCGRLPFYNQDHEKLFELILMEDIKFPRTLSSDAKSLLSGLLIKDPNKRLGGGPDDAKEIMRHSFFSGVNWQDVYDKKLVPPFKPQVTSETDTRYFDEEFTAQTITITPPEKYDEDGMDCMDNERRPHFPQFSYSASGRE

[4] = target: T4, ROCK1 (Homo sapiens, UniProt Q13464); test: Rho kinase inhibition assay (IMAP fluorescence polarization), ROCK1; assay type: biochemical;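 also: kinase reaction run 60 min at room temperature, then phosphorylated substrate captured on IMAP beads for 30 min, with fluorescence polarization read in mP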
T4 construct: purchased Upstate/Chemicon 14-601
T4 sequence (Q13464 17-535 limits assumed): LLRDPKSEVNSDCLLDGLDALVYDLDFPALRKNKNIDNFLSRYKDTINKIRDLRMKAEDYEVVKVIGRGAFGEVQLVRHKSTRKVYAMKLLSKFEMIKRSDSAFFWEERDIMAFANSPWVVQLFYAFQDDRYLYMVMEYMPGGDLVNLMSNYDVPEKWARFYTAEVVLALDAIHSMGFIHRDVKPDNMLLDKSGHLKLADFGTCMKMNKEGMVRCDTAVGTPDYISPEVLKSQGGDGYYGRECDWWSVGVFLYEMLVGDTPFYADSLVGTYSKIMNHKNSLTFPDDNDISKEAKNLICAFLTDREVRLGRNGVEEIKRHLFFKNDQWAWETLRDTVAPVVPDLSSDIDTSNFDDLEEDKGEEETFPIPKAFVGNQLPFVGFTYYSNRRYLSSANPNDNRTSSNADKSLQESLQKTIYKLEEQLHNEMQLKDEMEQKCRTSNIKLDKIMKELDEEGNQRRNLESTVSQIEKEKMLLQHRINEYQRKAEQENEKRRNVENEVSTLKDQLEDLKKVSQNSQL
Description: as §1

[5] = Compound plasma concentrations in unsensitized mice at 15 min post administration; assay type: in vivo; conditions: mouse, 15 μmol/kg; mean compound plasma concentration in mice at 15 minutes post oral administration; read-out: Mouse Oral PK
Description: Additionally, compound concentrations were determined in the plasma and lungs of male, ovalbumin-sensitized, Balb/c mice from a murine model of asthma. Test compounds were formulated in water or 1% polysorbate 80 and dosed at 15 μmol/kg for intraperitoneal (IP) or oral (PO) administration or formulated for intratracheal (IT) administration and dosed at 5 μmol/kg, which directly targets the lungs. Following completion of the in vivo study, mice were euthanized and blood and plasma collected approximately 2.5-3 hours post administration of test compound for bronchodialator (BD) studies and 24 hours post administration for anti-inflamatory (AI) studies. Lungs were homogenized in Matrix A lysing tubes using a FastPrep 24 tissue and cell homogenizer (MP Biomedicals, Solon, Ohio). Both plasma samples and lung extracts were assayed for compound concentrations using an on-line, solid phase extraction LC/MS/MS system.

[6] = 30 μM ATP, Ki=IC50/(1+([ATP Challenge]/EC50 ATP)), read-out: p70S6K Ki, Avg
[7] = average Ki, read-out: p70S6K Ki
[8] = 10 μM ATP, read-out: ROCK2 Ki, Avg
[9] = 30 μM ATP, Ki=IC50/(1+([ATP Challenge]/EC50 ATP)), read-out: Akt3 Ki, Avg

SMILES	Ki [1, 6] [µM]	Ki [1, 7] [µM]	Ki [2, 8] [µM]	Ki ([2]; average Ki, read-out: ROCK2 Ki) [µM]	Ki [3, 9] [µM]	Ki ([3]; average Ki, read-out: Akt3 Ki) [µM]	Ki ([4]; Avg, 10 μM ATP) [µM]	Ki ([4]; average Ki) [µM]	concentration at 15 min [5] [µM]
C#Cc1ccc(CN2CCC[C@H](Nc3ccc4[nH]ncc4c3)C2)cc1 [Compound 1.077, (S)-N-(1-(4-ethynylbenzyl)piperidin-3-yl)-1H-indazol-5-amine]	0.716	0.716	0.0111	0.0111	5.25	5.25	0.0761	0.0761	0.026
Cc1ccc(CN2CCC[C@H](Nc3ccc4[nH]ncc4c3)C2)cc1NS(C)(=O)=O [Compound 1.233, (S)-N-(5-((3-(1H-indazol-5-ylamino)piperidin-1-yl)methyl)-2-methylphenyl)methanesulfonamide]	2	2	0.0013	0.0013	2.63	2.63	0.0472	0.0472	0.041
Oc1cccc(CN2CCC[C@H](Nc3ccc4[nH]ncc4c3)C2)c1 [Compound 1.163, (S)-3-((3-(1H-indazol-5-ylamino)piperidin-1-yl)methyl)phenol]	1.88	1.88	0.0029	0.0029	4.42	4.42	0.0336	0.0336	0.01
COc1ccc(CN2CCC[C@H](Nc3ccc4[nH]ncc4c3)C2)cc1 [Compound 1.079, (S)-N-(1-(4-methoxybenzyl)piperidin-3-yl)-1H-indazol-5-amine]	3.01	3.01	0.0047	0.0047	7.19	7.19	0.0715	0.0715	2.44
CCOC(=O)COc1cccc(CN2CCC[C@H](Nc3ccc4[nH]ncc4c3)C2)c1 [Compound 1.200, (S)-ethyl 2-(3-((3-(1H-indazol-5-ylamino)piperidin-1-yl)methyl)phenoxy)acetate]	3.9	3.9	0.0059	0.0059	10.6	10.6	0.0765	0.0765	0
CS(=O)(=O)Nc1cccc(CN2CCC[C@@H](Nc3ccc4[nH]ncc4c3)C2)c1 [Compound 1.093, (R)-N-(3-((3-(1H-indazol-5-ylamino)piperidin-1-yl)methyl)phenyl)methanesulfonamide]	2.03	2.03	0.0077	0.0077	1.82	1.82	0.0645	0.0645	0.363
OCCN1CCc2ccc(CN3CCC[C@H](Nc4ccc5[nH]ncc5c4)C3)cc21 [Compound 1.217, (S)-2-(6-((3-(1H-indazol-5-ylamino)piperidin-1-yl)methyl)indolin-1-yl)ethanol]	3.5	3.5	0.0121	0.0121	10.3	10.3	0.0701	0.0701	0.293
Cc1cccc(CN2CCC[C@H](Nc3ccc4[nH]ncc4c3)C2)c1 [Compound 1.171, (S)-N-(1-(3-methylbenzyl)piperidin-3-yl)-1H-indazol-5-amine]	3.42	3.42	0.016	0.016	9.33	9.33	0.109	0.109	0.369
OCCn1ccc2ccc(CN3CC[C@@H](Nc4cccc5cnccc45)C3)cc21 [Compound 2.060, (R)-2-(6-((3-(isoquinolin-5-ylamino)pyrrolidin-1-yl)methyl)-1H-indol-1-yl)ethanol]	0.181	0.181	0.0032	0.0032	0.329	0.329	0.0049	0.0049	0.308
CSc1cccc(CN2CCC[C@H](Nc3ccc4[nH]ncc4c3)C2)c1 [Compound 1.158, (S)-N-(1-(3-(methylthio)benzyl)piperidin-3-yl)-1H-indazol-5-amine]	1.97	1.97	0.0051	0.0051	5.91	5.91	0.0641	0.0641	0.102
CCCCS(=O)(=O)Nc1cc(CN2CCC[C@H](Nc3ccc4[nH]ncc4c3)C2)ccc1C [Compound 1.236, (S)-N-(5-((3-(1H-indazol-5-ylamino)piperidin-1-yl)methyl)-2-methylphenyl)butane-1-sulfonamide]	2.76	2.76	0.0021	0.0021	3.72	3.72	0.0493	0.0493	0.048
NC(=O)COc1cccc(CN2CCC[C@H](Nc3ccc4[nH]ncc4c3)C2)c1 [Compound 1.195]	2.73	2.73	0.0103	0.0103	22	22	0.196	0.196	0.108
Cc1ccc(CN2CCC[C@@H](Nc3ccc4[nH]ncc4c3)C2)c(C)c1 [Compound 1.137, (R)-N-(1-(2,4-dimethylbenzyl)piperidin-3-yl)-1H-indazol-5-amine]	0.354	0.354	0.0051	0.0072	0.198	0.198	0.0258	0.0363	0.557
Cc1cccc(CN2CCC[C@H](Nc3ccc4[nH]ncc4c3)C2)c1C [Compound 1.156, (S)-N-(1-(2,3-dimethylbenzyl)piperidin-3-yl)-1H-indazol-5-amine]	3.24	3.24	0.013	0.013	8.77	8.77	0.136	0.136	0.088
OCCn1ccc2ccc(CN3CCC[C@H](Nc4ccc5[nH]ncc5c4)C3)cc21 [Compound 1.109, (S)-2-(6-((3-(1H-indazol-5-ylamino)piperidin-1-yl)methyl)-1H-indol-1-yl)ethanol]	2.5	2.5	0.0096	0.0096	5.19	5.19	0.0588	0.0588	0.187
OCc1ccc(CN2CCC[C@H](Nc3ccc4[nH]ncc4c3)C2)cc1 [Compound 1.223, (S)-(4-((3-(1H-indazol-5-ylamino)piperidin-1-yl)methyl)phenyl)methanol]	3.1	3.1	0.0157	0.0157	11.1	11.1	0.239	0.239	0.013
Cc1ccc(CN2CCC[C@H](Nc3ccc4[nH]ncc4c3)C2)cc1OCCO [Compound 1.152, (S)-2-(5-((3-(1H-indazol-5-ylamino)piperidin-1-yl)methyl)-2-methylphenoxy)ethanol]	0.523	0.523	0.0033	0.0033	1.98	1.98	0.0198	0.0198	0.435
